According to ChEMBL document CHEMBL1150408, “Synthesis, induced-fit docking investigations, and in vitro aldose reductase inhibitory activity of non-carboxylic acid containing 2,4-thiazolidinedione derivatives” (Bioorg Med Chem, 2008):

Molecular target: Aldo-keto reductase family 1 member B1 (Bos taurus) (UniProt P16116)
Assay: Inhibition of bovine lens ALR2 at 12.5 uM assessed as reduction of D,L-glyceraldehyde by spectrophotometry
Type: tissue-based
Conditions: Lens of camera-type eye

**Q.** For `COc1ccc(/C=C2\SC(=O)N(CC(N)=O)C2=O)cc1`, which inhibition is on record?
**A.** 0%

**Q.** For `COc1ccc(/C=C2\SC(=O)N(CC(N)=O)C2=O)cc1O`, which inhibition is on record?
**A.** 0%

**Q.** Which inhibition does the source give for `NC(=O)CN1C(=O)S/C(=C\c2ccc3ccccc3c2)C1=O` here?
**A.** 3%

**Q.** Which inhibition does the source give for `NC(=O)CN1C(=O)S/C(=C\c2cccc(O)c2)C1=O` here?
**A.** 16%

**Q.** With `COc1cccc(/C=C2\SC(=O)N(CC(N)=O)C2=O)c1` as the molecule, how does the inhibition read?
**A.** 10%

**Q.** With `NC(=O)CN1C(=O)S/C(=C\c2cccc3ccccc23)C1=O` as the molecule, how does the inhibition read?
**A.** 32%

**Q.** Which inhibition does the source give for `NC(=O)CN1C(=O)S/C(=C\c2ccc(Oc3ccccc3)cc2)C1=O` here?
**A.** 0%

**Q.** For `NC(=O)CN1C(=O)S/C(=C\c2cccc(Oc3ccccc3)c2)C1=O`, which inhibition is on record?
**A.** 8%

**Q.** Which inhibition does the source give for `COc1cc(/C=C2\SC(=O)N(CC(N)=O)C2=O)ccc1O` here?
**A.** 31%

**Q.** Which inhibition does the source give for `NC(=O)CN1C(=O)S/C(=C\c2ccc(-c3ccccc3)cc2)C1=O` here?
**A.** 18%

Molecular target: Aldo-keto reductase family 1 member B1 (Bos taurus, UniProt P16116)
Assay: Inhibition of bovine lens ALR2 assessed as reduction of D,L-glyceraldehyde by spectrophotometry
Design: species or system Lens of camera-type eye
Conditions: not given

**Q.** For `O=C(CN1C(=O)S/C(=C\c2ccc(-c3ccccc3)cc2)C1=O)NO`, which IC50 is on record?
**A.** 20.3 µM

**Q.** Which IC50 does the source give for `O=C(CN1C(=O)S/C(=C\c2ccc(O)cc2)C1=O)NO` here?
**A.** 1.79 µM

**Q.** Which IC50 does the source give for `O=C(CN1C(=O)S/C(=C\c2cccc3ccccc23)C1=O)NO` here?
**A.** 4.2 µM

**Q.** For `O=C(CN1C(=O)S/C(=C\c2cccc(Oc3ccccc3)c2)C1=O)NO`, which IC50 is on record?
**A.** 12.7 µM

**Q.** For `NC(=O)CN1C(=O)S/C(=C\c2ccc(O)cc2)C1=O`, which IC50 is on record?
**A.** 6.52 µM

**Q.** With `O=C(CN1C(=O)S/C(=C\c2ccc(Oc3ccccc3)cc2)C1=O)NO` as the molecule, how does the IC50 read?
**A.** 3.67 µM

**Q.** Which IC50 does the source give for `O=C(CN1C(=O)S/C(=C\c2ccc(OCc3ccccc3)cc2)C1=O)NO` here?
**A.** 7.34 µM

Molecular target: Aldose reductase (Bos taurus)
Assay: Inhibition of ALR2
Conditions: not given

**Q.** Which IC50 does the source give for `O=C(O)CN1C(=O)S/C(=C\c2ccc(O)cc2)C1=O` here?
**A.** 0.15 µM

Tested on: not listed separately
Assay: Dissociation constant, pKa of the compound
Type: physicochemical
Conditions: not given

**Q.** With `O=C1NC(=O)[C@@]2(CCOc3ccc(F)cc32)N1` [SORBINIL] as the molecule, how does the pKa read?
**A.** 8

Molecular target: Aldo-keto reductase family 1 member B1 (Bos taurus) (UniProt P16116)
Assay: Inhibition of bovine lens ALR2 at 25 uM assessed as reduction of D,L-glyceraldehyde by spectrophotometry
Conditions: Lens of camera-type eye

**Q.** For `O=C(CN1C(=O)S/C(=C\c2ccc3ccccc3c2)C1=O)NO`, which inhibition is on record?
**A.** 39%
